Experimental data published in ChEMBL document CHEMBL4308864, “Targeting tyrosine kinase: Development of acridone - pyrrole - oxindole hybrids against human breast cancer” (2019).

Assays:
Type in all cases: functional
SK-MEL-28 = experiment: Growth inhibition of human SK-MEL-28 cells assessed as cell growth at 10^-5 M incubated for 48 hrs by sulforhodamine B assay relative to control; settings: SK-MEL-28, 48 h, read-out: Activity
HCT-15 = experiment: Growth inhibition of human HCT15 cells assessed as cell growth at 10^-5 M incubated for 48 hrs by sulforhodamine B assay relative to control; settings: HCT-15, 48 h, read-out: Activity
OVCAR-4 = experiment: Growth inhibition of human OVCAR4 cells assessed as cell growth at 10^-5 M incubated for 48 hrs by sulforhodamine B assay relative to control; settings: OVCAR-4, 48 h, read-out: Activity
A498 = experiment: Growth inhibition of human A498 cells assessed as cell growth at 10^-5 M incubated for 48 hrs by sulforhodamine B assay relative to control; settings: A498, 48 h, read-out: Activity
DU-145 = experiment: Growth inhibition of human DU145 cells assessed as cell growth at 10^-5 M incubated for 48 hrs by sulforhodamine B assay relative to control; settings: DU-145, 48 h, read-out: Activity
NCI-H522 = experiment: Growth inhibition of human NCI-H522 cells assessed as cell growth at 10^-5 M incubated for 48 hrs by sulforhodamine B assay relative to control; settings: NCI-H522, 48 h, read-out: Activity
HT-29 = experiment: Growth inhibition of human HT-29 cells assessed as cell growth at 10^-5 M incubated for 48 hrs by sulforhodamine B assay relative to control; settings: HT-29, 48 h, read-out: Activity
SNB-75 = experiment: Growth inhibition of human SNB75 cells assessed as cell growth at 10^-5 M incubated for 48 hrs by sulforhodamine B assay relative to control; settings: SNB-75, 48 h, read-out: Activity
PC-3 = experiment: Growth inhibition of human PC3 cells assessed as cell growth at 10^-5 M incubated for 48 hrs by sulforhodamine B assay relative to control; settings: PC-3, 48 h, read-out: Activity
M14 = experiment: Growth inhibition of human M14 cells assessed as cell growth at 10^-5 M incubated for 48 hrs by sulforhodamine B assay relative to control; settings: M14, 48 h, read-out: Activity
SK-MEL-2 = experiment: Growth inhibition of human SK-MEL-2 cells assessed as cell growth at 10^-5 M incubated for 48 hrs by sulforhodamine B assay relative to control; settings: SK-MEL-2, 48 h, read-out: Activity
SN12C = experiment: Growth inhibition of human SN12C cells assessed as cell growth at 10^-5 M incubated for 48 hrs by sulforhodamine B assay relative to control; settings: read-out: Activity
HCC 2998 = experiment: Growth inhibition of human HCC2998 cells assessed as cell growth at 10^-5 M incubated for 48 hrs by sulforhodamine B assay relative to control; settings: HCC 2998, 48 h, read-out: Activity
TK-10 = experiment: Growth inhibition of human TK10 cells assessed as cell growth at 10^-5 M incubated for 48 hrs by sulforhodamine B assay relative to control; settings: TK-10, 48 h, read-out: Activity
HCT-116 = experiment: Growth inhibition of human HCT116 cells assessed as cell growth at 10^-5 M incubated for 48 hrs by sulforhodamine B assay relative to control; settings: HCT-116, 48 h, read-out: Activity
ACHN = experiment: Growth inhibition of human ACHN cells assessed as cell growth at 10^-5 M incubated for 48 hrs by sulforhodamine B assay relative to control; settings: read-out: Activity
SK-OV-3 = experiment: Growth inhibition of human SKOV3 cells assessed as cell growth at 10^-5 M incubated for 48 hrs by sulforhodamine B assay relative to control; settings: SK-OV-3, 48 h, read-out: Activity
U-251 = experiment: Growth inhibition of human U251 cells assessed as cell growth at 10^-5 M incubated for 48 hrs by sulforhodamine B assay relative to control; settings: U-251, 48 h, read-out: Activity
MDA-MB-468 = experiment: Growth inhibition of human MDA-MB-468 cells at 10^-5 M incubated for 48 hrs by sulforhodamine B assay relative to control; settings: MDA-MB-468, 48 h, read-out: GI
SF-268 = experiment: Growth inhibition of human SF268 cells assessed as cell growth at 10^-5 M incubated for 48 hrs by sulforhodamine B assay relative to control; settings: SF-268, 48 h, read-out: Activity
IGROV-1 = experiment: Growth inhibition of human IGROV1 cells assessed as cell growth at 10^-5 M incubated for 48 hrs by sulforhodamine B assay relative to control; settings: IGROV-1, 48 h, read-out: Activity
NCI-H460 = experiment: Growth inhibition of human NCI-H460 cells assessed as cell growth at 10^-5 M incubated for 48 hrs by sulforhodamine B assay relative to control; settings: NCI-H460, 48 h, read-out: Activity
OVCAR-5 = experiment: Growth inhibition of human OVCAR5 cells assessed as cell growth at 10^-5 M incubated for 48 hrs by sulforhodamine B assay relative to control; settings: OVCAR-5, 48 h, read-out: Activity
HL-60(TB) = experiment: Growth inhibition of human HL-60(TB) cells assessed as cell growth at 10^-5 M incubated for 48 hrs by sulforhodamine B assay relative to control; settings: HL-60, 48 h, read-out: Activity
Malme-3M = experiment: Growth inhibition of human MALME-3M cells assessed as cell growth at 10^-5 M incubated for 48 hrs by sulforhodamine B assay relative to control; settings: read-out: Activity
LOX IMVI = experiment: Growth inhibition of human LOXIMVI cells assessed as cell growth at 10^-5 M incubated for 48 hrs by sulforhodamine B assay relative to control; settings: read-out: Activity
786-0 = experiment: Growth inhibition of human 786-0 cells assessed as cell growth at 10^-5 M incubated for 48 hrs by sulforhodamine B assay relative to control; settings: 786-0, 48 h, read-out: Activity
MOLT-4 = experiment: Growth inhibition of human MOLT4 cells assessed as cell growth at 10^-5 M incubated for 48 hrs by sulforhodamine B assay relative to control; settings: MOLT-4, 48 h, read-out: Activity
CCRF-CEM = experiment: Growth inhibition of human CCRF-CEM cells assessed as cell growth at 10^-5 M incubated for 48 hrs by sulforhodamine B assay relative to control; settings: read-out: Activity
UACC-62 = experiment: Growth inhibition of human UACC62 cells assessed as cell growth at 10^-5 M incubated for 48 hrs by sulforhodamine B assay relative to control; settings: UACC-62, 48 h, read-out: Activity
A549 = experiment: Growth inhibition of human A549/ATCC cells assessed as cell growth at 10^-5 M incubated for 48 hrs by sulforhodamine B assay relative to control; settings: A549, 48 h, read-out: Activity
Hs-578T = experiment: Growth inhibition of human Hs578T cells assessed as cell growth at 10^-5 M incubated for 48 hrs by sulforhodamine B assay relative to control; settings: read-out: Activity

Row | Structure (SMILES) | growth at 10 µM (SK-MEL-28) | growth at 10 µM (HCT-15) | growth at 10 µM (OVCAR-4) | growth at 10 µM (A498) | growth at 10 µM (DU-145) | growth at 10 µM (NCI-H522) | growth at 10 µM (HT-29) | growth at 10 µM (SNB-75) | growth at 10 µM (PC-3) | growth at 10 µM (M14) | growth at 10 µM (SK-MEL-2) | growth at 10 µM (SN12C) | growth at 10 µM (HCC 2998) | growth at 10 µM (TK-10) | growth at 10 µM (HCT-116) | growth at 10 µM (ACHN) | growth at 10 µM (SK-OV-3) | growth at 10 µM (U-251) | inhibition of growth at 10 µM (MDA-MB-468) | growth at 10 µM (SF-268) | also measured
1 | O=C1NC(=O)C(=Cc2cccn2CCCCCn2c3ccccc3c(=O)c3ccccc32)C(=O)N1 | 111% | 92.8% | 99.8% | 104% | 113% | 90.5% | 103% | 101% | 91% | 102% | 107% | 106% | 105% | 101% | 82.2% | 105% | 108% | 96.8% | 0% | 102% | growth at 10 µM (IGROV-1): 99.4%; growth at 10 µM (NCI-H460): 108%; growth at 10 µM (OVCAR-5): 101%; growth at 10 µM (HL-60(TB)): 92.2%; growth at 10 µM (Malme-3M): 119%; growth at 10 µM (LOX IMVI): 95.3%; growth at 10 µM (786-0): 99%; growth at 10 µM (MOLT-4): 93.3%; growth at 10 µM (CCRF-CEM): 100%; growth at 10 µM (UACC-62): 90.8%; growth at 10 µM (A549): 100%; growth at 10 µM (Hs-578T): 106%
2 | O=C1NC(=O)C(=Cc2cccn2CCCn2c3ccccc3c(=O)c3ccccc32)C(=O)N1 | 110% | 96.5% | 104% | 98.5% | 108% | 88.6% | 99.7% | 95.7% | 98.9% | 102% | 109% | 101% | 104% | 96.6% | 86% | 102% | 98.7% | 92.5% | 7% | 99.7% | growth at 10 µM (IGROV-1): 101%; growth at 10 µM (NCI-H460): 105%; growth at 10 µM (OVCAR-5): 99.9%; growth at 10 µM (HL-60(TB)): 94%; growth at 10 µM (Malme-3M): 114%; growth at 10 µM (LOX IMVI): 96.9%; growth at 10 µM (786-0): 96.3%; growth at 10 µM (MOLT-4): 93.7%; growth at 10 µM (CCRF-CEM): 92.7%; growth at 10 µM (UACC-62): 87.1%; growth at 10 µM (A549): 94.6%; growth at 10 µM (Hs-578T): 115%
3 | O=C1Nc2ccccc2/C1=C/c1cccn1CCCCCCn1c2ccccc2c(=O)c2ccccc21 | 111% | 23% | 53.8% | 103% | 94% | 66% | 92.9% | 92.3% | 40.1% | 78.2% | 86.2% | 93.6% | 42.8% | 78.7% | 70.4% | 89.7% | 87.2% | 92.4% | 92% | 87% | growth at 10 µM (IGROV-1): 88%; growth at 10 µM (NCI-H460): 90.7%; growth at 10 µM (OVCAR-5): 82.2%; growth at 10 µM (HL-60(TB)): 54.5%; growth at 10 µM (Malme-3M): 90.7%; growth at 10 µM (LOX IMVI): 91.2%; growth at 10 µM (786-0): 103%; growth at 10 µM (MOLT-4): 50.9%; growth at 10 µM (CCRF-CEM): 49.8%; growth at 10 µM (UACC-62): 50.3%; growth at 10 µM (A549): 87.8%; growth at 10 µM (Hs-578T): 96.3%
4 | O=C1Nc2ccccc2/C1=C/c1cccn1CCCCCn1c2ccccc2c(=O)c2ccccc21 | 88.1% | 28.9% | 57.1% | 108% | 97.9% | 66.3% | 89.5% | 86.7% | 42% | 73.3% | 84% | 97.1% | 42.5% | 93.8% | 69.8% | 55.1% | 90.4% | 93.4% | 62% | 83.3% | growth at 10 µM (IGROV-1): 73%; growth at 10 µM (NCI-H460): 95.9%; growth at 10 µM (OVCAR-5): 82.6%; growth at 10 µM (HL-60(TB)): 47.6%; growth at 10 µM (Malme-3M): 84.5%; growth at 10 µM (LOX IMVI): 80.3%; growth at 10 µM (786-0): 105%; growth at 10 µM (MOLT-4): 46%; growth at 10 µM (CCRF-CEM): 44.9%; growth at 10 µM (UACC-62): 48.2%; growth at 10 µM (A549): 81.4%; growth at 10 µM (Hs-578T): 90.5%
